PubChem BioAssay (NCI)
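Exposure lasted 48 hours, with cells grown in 96-well plates and compounds tested at five concentrations. At the GI50, growth is halved. TGI: concentration producing complete growth inhibition.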

Experiments:
Experiment in all cases: NCI-60 cell line screen, 48 h
RXF 393 renal = system: RXF 393 renal
MOLT-4 leukemia = system: MOLT-4 leukemia
NCI-H23 lung = system: NCI-H23 lung
KM12 colon = system: KM12 colon
NCI-H226 lung = system: NCI-H226 lung
SF-539 CNS = system: SF-539 CNS
A498 renal = system: A498 renal
K-562 leukemia = system: K-562 leukemia
ACHN renal = system: ACHN renal
SF-268 CNS = system: SF-268 CNS

SMILES	GI50 (RXF 393 renal) [µM]	TGI (RXF 393 renal) [µM]	GI50 (MOLT-4 leukemia) [µM]	TGI (MOLT-4 leukemia) [µM]	GI50 (NCI-H23 lung) [µM]	TGI (NCI-H23 lung) [µM]	GI50 (KM12 colon) [µM]	TGI (KM12 colon) [µM]	GI50 (NCI-H226 lung) [µM]	TGI (NCI-H226 lung) [µM]	GI50 (SF-539 CNS) [µM]	TGI (SF-539 CNS) [µM]	GI50 (A498 renal) [µM]	TGI (A498 renal) [µM]	GI50 (K-562 leukemia) [µM]	TGI (K-562 leukemia) [µM]	GI50 (ACHN renal) [µM]	TGI (ACHN renal) [µM]	GI50 (SF-268 CNS) [µM]	TGI (SF-268 CNS) [µM]
CCOC(=O)c1c(C)n(Cc2ccccc2)c2c1cc1oc(=O)c(=O)n3cnc2c13	16	> 50	8.47	> 50	14.4	> 50	19.2	> 50	20.3	> 50	14.5	37.8	11	49.8	12.9	> 50	9.91	39.9	15.3	> 50
Cc1c(Cl)c(C)c(Cc2c(C)c(Cl)c(C)c(Cl)c2O)c(O)c1Cl	2	6.89	3.24	13.4	2.46	8.79	3.34	11.4	2.52	10.7	3.01	11.4	2.04	6.35	2.21	14.1	2.32	6.88	3.4	15.8
O=C(C=C=Nc1ccccc1)C(=O)N=C=Cc1ccccc1	–	0.497	1.14	5.8	4.55	19.5	6.38	19.1	16.4	59.8	9.39	23	16	34	1.59	–	1.76	4.6	3.43	12.1
O=C(/C=C/c1cccc2ccccc12)Nc1ncc(Cc2ccccc2)s1	0.436	1.66	1.65	> 100	1.58	> 100	0.866	> 100	1.37	> 100	0.716	2.92	0.189	0.72	0.397	> 100	1.95	6.02	2.61	> 100
Cc1cc(Nc2nc(-c3ccncc3)nc3ccccc23)n[nH]1	0.91	9.29	33.9	> 100	–	–	0.335	> 100	13.8	> 100	3.83	> 100	0.654	6.01	4.99	> 100	1.06	> 100	5.62	> 100
COc1ccc(C)cc1C1CCC(=O)O1 (stereo not drawn)	–	> 100	–	> 100	–	> 100	–	> 100	–	> 100	–	> 100	–	> 100	–	> 100	–	> 100	–	–
NS(=O)(=O)c1ccc(NC(=O)c2cccc(NC3=C(Cl)C(=O)N(Cc4ccccc4)C3=O)c2)cc1	10.6	33.9	2.09	7.99	–	–	6.83	26.5	8.33	46.2	11.3	26.7	9.25	23.7	2.27	6.09	14.7	33.2	11.7	32.4
